Test results published in patent publication US10245261B2, “Substituted indol-5-ol derivatives and their therapeutic applications” (NantBioScience, Inc., priority 2013, dated 2019).

Legend:
Test in all cases: KinaseProfiler kinase assay
Type in all cases: biochemical
SAPK3(h) = SAPK3(h) (Homo sapiens, UniProt P53778)
In short: (§1)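 Kinase activity is followed by incorporation of 33P from [γ-33P]ATP in 8 mM MOPS pH 7.0 with 10 mM Mg acetate and 0.2 mM EDTA over 40 min at room temperature. Inhibition is scaled between no-kinase and phosphopeptide control wells.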

LKB1(h) = LKB1(h) (Homo sapiens, UniProt Q15831)
In short: as §1

BrSK1(h) = BrSK1(h) (Homo sapiens, UniProt Q8TDC3)
In short: as §1

SAPK2a(h) = SAPK2a(h) (Homo sapiens, UniProt Q16539)
In short: as §1

IRAK4(h) = IRAK4(h) (Homo sapiens, UniProt Q9NWZ3)
In short: as §1

PDGFRβ(h) = PDGFRβ(h) (Homo sapiens, UniProt P09619)
In short: as §1

CDK9/cyclin T1(h) = CDK9/cyclin T1(h) (Homo sapiens, UniProt P50750)
In short: as §1

Met(h) = Met(h) (Homo sapiens, UniProt P08581)
In short: as §1

Pyk2(h) = Pyk2(h) (Homo sapiens, UniProt Q14289)
In short: as §1

PKCα(h) = PKCα(h) (Homo sapiens, UniProt P17252)
In short: as §1

MRCKβ(h) = MRCKβ(h) (Homo sapiens, UniProt Q9Y5S2)
In short: as §1

EphB2(h) = EphB2(h) (Homo sapiens, UniProt P29323)
In short: as §1

Pim-3(h) = Pim-3(h) (Homo sapiens, UniProt Q86V86)
In short: as §1

Fms(Y969C)(h) = Fms(Y969C)(h) (Homo sapiens, UniProt P07333, Y969C)
In short: as §1

Txk(h) = Txk(h) (Homo sapiens, UniProt P42681)
Chain of Txk(h) (P42681 whole entry): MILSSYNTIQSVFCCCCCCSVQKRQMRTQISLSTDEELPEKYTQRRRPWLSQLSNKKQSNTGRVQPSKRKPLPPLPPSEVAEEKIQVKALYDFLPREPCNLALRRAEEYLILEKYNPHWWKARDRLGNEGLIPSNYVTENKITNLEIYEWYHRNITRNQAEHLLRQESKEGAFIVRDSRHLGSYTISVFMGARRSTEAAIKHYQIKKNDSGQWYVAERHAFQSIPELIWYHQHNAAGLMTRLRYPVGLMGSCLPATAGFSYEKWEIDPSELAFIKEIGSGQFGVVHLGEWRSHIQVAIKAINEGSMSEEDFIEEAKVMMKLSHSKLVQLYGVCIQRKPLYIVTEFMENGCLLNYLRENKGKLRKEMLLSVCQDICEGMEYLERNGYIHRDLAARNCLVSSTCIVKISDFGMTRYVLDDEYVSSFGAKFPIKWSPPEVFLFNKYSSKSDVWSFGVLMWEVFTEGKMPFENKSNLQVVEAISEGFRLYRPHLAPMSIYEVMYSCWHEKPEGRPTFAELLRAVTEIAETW
In short: as §1

Fyn(h) = Fyn(h) (Homo sapiens, UniProt P06241)
Chain of Fyn(h) (P06241 whole entry): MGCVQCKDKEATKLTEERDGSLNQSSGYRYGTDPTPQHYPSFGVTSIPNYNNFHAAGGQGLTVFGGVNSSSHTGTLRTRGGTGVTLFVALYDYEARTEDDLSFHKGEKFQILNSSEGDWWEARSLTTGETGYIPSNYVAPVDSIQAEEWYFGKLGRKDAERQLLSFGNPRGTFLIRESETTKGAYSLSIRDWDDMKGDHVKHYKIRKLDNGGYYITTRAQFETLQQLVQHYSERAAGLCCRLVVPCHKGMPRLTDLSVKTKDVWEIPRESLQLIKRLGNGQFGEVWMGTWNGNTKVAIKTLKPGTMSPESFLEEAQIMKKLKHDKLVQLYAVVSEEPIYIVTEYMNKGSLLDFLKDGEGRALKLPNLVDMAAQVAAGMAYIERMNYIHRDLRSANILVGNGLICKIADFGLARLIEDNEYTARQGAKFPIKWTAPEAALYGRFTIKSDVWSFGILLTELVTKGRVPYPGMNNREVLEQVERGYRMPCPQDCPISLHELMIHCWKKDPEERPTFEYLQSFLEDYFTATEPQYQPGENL
In short: as §1

IGF-1R(h) = IGF-1R(h) (Homo sapiens, UniProt P08069)
Chain of IGF-1R(h) (P08069 31-1367): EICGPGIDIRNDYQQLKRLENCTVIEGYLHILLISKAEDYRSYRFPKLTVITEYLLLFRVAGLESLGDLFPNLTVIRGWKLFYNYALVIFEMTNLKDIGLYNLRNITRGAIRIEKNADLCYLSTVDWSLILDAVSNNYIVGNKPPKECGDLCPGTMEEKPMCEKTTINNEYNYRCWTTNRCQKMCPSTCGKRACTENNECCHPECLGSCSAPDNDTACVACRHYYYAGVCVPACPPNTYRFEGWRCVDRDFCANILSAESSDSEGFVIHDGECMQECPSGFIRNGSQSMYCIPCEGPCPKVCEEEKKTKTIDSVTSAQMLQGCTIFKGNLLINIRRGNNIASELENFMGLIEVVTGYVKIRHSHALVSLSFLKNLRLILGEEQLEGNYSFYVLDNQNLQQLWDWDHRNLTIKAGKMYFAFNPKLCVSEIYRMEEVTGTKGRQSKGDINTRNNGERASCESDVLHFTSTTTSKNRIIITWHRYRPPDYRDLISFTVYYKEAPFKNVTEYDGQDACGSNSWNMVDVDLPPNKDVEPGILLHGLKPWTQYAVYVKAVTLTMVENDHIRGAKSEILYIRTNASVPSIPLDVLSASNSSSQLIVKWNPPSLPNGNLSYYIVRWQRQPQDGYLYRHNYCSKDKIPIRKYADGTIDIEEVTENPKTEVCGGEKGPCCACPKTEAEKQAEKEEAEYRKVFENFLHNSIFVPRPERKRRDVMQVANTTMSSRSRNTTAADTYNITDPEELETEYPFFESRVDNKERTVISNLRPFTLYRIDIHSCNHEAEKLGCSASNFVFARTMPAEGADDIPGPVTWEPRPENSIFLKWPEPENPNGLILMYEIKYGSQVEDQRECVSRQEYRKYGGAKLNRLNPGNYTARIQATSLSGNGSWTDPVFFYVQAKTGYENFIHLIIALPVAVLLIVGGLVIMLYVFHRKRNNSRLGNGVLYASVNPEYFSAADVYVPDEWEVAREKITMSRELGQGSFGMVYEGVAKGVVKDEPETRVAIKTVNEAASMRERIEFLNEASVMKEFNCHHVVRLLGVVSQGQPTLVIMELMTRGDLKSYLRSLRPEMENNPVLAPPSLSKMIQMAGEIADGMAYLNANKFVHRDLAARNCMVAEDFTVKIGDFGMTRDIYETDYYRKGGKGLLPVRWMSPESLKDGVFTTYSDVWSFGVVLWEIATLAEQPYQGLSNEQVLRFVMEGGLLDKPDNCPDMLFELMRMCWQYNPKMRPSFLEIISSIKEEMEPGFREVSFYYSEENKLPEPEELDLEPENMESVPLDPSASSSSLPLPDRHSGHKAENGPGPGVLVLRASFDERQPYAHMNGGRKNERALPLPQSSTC
In short: as §1

MKK7β(h) = MKK7β(h) (Homo sapiens, UniProt O14733)
In short: as §1

PAR-1Bα(h) = PAR-1Bα(h) (Homo sapiens, UniProt Q7KZI7)
In short: as §1

SIK(h) = SIK(h) (Homo sapiens, UniProt P57059)
In short: as §1

DDR2(h) = DDR2(h) (Homo sapiens, UniProt Q16832)
In short: as §1

DAPK1(h) = DAPK1(h) (Homo sapiens, UniProt P53355)
In short: as §1

MSK2(h) = MSK2(h) (Homo sapiens, UniProt O75676)
In short: as §1

PKCζ(h) = PKCζ(h) (Homo sapiens, UniProt Q05513)
Chain of PKCζ(h) (Q05513 whole entry): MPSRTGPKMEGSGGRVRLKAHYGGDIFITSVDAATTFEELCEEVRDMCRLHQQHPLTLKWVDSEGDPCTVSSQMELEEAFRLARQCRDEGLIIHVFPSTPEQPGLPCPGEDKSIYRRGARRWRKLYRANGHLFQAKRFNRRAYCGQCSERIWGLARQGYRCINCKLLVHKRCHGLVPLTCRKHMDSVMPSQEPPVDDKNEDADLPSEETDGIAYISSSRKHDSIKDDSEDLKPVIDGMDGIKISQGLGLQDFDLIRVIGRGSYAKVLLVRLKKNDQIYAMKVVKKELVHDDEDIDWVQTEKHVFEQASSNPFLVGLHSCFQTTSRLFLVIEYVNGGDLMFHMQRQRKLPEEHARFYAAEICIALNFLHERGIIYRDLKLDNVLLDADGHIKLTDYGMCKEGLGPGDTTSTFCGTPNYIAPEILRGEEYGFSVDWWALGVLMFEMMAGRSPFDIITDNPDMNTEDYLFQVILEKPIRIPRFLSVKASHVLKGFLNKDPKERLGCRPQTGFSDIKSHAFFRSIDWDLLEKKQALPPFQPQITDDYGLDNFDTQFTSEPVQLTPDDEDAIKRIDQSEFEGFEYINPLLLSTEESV
In short: as §1

Pim-2(h) = Pim-2(h) (Homo sapiens, UniProt Q9P1W9)
In short: as §1

ULK3(h) = ULK3(h) (Homo sapiens, UniProt Q6PHR2)
In short: as §1

PKCι(h) = PKCι(h) (Homo sapiens, UniProt P41743)
In short: as §1

PIP5K1α(h) = PIP5K1α(h) (Homo sapiens, UniProt Q99755)
Chain of PIP5K1α(h) (Q99755 whole entry): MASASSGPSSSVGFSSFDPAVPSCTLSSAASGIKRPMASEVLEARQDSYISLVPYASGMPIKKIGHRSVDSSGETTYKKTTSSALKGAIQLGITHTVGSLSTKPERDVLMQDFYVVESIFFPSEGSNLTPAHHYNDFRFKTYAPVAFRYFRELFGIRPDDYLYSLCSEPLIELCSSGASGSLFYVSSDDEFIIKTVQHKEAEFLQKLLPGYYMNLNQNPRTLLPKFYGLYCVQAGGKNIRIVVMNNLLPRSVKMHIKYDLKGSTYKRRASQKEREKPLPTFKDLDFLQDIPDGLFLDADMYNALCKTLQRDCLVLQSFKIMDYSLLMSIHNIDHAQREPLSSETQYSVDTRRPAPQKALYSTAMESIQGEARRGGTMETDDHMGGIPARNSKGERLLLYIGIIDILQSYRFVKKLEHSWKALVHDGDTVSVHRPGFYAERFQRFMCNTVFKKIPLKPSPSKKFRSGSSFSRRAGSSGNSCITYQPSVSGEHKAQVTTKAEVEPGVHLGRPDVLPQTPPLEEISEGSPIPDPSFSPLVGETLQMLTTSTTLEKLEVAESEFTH
In short: as §1

IKKβ(h) = IKKβ(h) (Homo sapiens, UniProt O14920)
Chain of IKKβ(h) (O14920 whole entry): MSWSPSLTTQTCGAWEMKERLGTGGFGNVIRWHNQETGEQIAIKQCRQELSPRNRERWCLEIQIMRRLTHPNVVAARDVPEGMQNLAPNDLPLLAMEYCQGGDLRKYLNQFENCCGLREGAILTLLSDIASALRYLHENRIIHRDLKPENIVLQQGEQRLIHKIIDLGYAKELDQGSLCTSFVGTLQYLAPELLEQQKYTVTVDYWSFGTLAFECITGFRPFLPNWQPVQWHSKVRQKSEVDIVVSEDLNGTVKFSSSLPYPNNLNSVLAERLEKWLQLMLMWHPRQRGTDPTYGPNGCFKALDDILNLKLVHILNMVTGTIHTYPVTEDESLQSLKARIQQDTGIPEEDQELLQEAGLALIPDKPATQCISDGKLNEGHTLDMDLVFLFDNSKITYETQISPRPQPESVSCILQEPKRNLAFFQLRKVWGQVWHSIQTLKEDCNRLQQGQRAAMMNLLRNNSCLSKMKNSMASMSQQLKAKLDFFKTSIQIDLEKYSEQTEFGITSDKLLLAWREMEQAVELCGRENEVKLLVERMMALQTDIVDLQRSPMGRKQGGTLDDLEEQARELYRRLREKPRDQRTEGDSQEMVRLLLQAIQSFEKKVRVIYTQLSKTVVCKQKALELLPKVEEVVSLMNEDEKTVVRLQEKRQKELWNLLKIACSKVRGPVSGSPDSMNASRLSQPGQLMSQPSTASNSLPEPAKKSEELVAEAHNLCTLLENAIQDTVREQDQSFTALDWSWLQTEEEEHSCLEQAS
In short: as §1

Hck(h) = Hck(h) (Homo sapiens, UniProt P08631)
In short: as §1

Snk(h) = Snk(h) (Homo sapiens, UniProt Q9NYY3)
Chain of Snk(h) (Q9NYY3 whole entry): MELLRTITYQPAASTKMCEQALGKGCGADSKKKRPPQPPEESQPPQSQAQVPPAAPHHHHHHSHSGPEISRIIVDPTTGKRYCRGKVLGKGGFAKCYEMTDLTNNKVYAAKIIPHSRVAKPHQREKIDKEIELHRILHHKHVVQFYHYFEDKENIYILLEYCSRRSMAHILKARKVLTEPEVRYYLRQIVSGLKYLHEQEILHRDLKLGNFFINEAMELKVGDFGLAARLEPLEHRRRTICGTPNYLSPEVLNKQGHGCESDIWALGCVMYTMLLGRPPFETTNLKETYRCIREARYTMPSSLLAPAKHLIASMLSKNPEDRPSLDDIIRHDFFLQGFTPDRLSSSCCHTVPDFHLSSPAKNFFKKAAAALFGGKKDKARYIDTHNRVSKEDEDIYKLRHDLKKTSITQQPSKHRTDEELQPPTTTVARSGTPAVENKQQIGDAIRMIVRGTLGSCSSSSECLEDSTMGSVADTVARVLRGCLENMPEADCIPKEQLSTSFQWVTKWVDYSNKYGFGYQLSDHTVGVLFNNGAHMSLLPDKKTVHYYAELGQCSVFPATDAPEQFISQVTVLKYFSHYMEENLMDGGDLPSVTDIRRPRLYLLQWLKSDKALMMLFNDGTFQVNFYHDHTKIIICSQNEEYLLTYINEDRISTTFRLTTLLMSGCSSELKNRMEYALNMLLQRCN
In short: as §1

Yes(h) = Yes(h) (Homo sapiens, UniProt P07947)
In short: as §1

Row | SMILES | inhibition at 0.1 µM (SAPK3(h)) [%] | inhibition at 0.1 µM (LKB1(h)) [%] | inhibition at 0.1 µM (BrSK1(h)) [%] | inhibition at 0.1 µM (SAPK2a(h)) [%] | inhibition at 0.1 µM (IRAK4(h)) [%] | inhibition at 0.1 µM (PDGFRβ(h)) [%] | inhibition at 0.1 µM (CDK9/cyclin T1(h)) [%] | inhibition at 0.1 µM (Met(h)) [%] | inhibition at 0.1 µM (Pyk2(h)) [%] | inhibition at 0.1 µM (PKCα(h)) [%] | inhibition at 0.1 µM (MRCKβ(h)) [%] | inhibition at 0.1 µM (EphB2(h)) [%] | inhibition at 0.1 µM (Pim-3(h)) [%] | inhibition at 0.1 µM (Fms(Y969C)(h)) [%] | inhibition at 0.1 µM (Txk(h)) [%] | inhibition at 0.1 µM (Fyn(h)) [%] | inhibition at 0.1 µM (IGF-1R(h)) [%] | inhibition at 0.1 µM (MKK7β(h)) [%] | inhibition at 0.1 µM (PAR-1Bα(h)) [%] | inhibition at 0.1 µM (SIK(h)) [%] | other results
1 | Cc1cc2c(F)c(Oc3nc(Nc4cc(C5CC5)[nH]n4)cc(N4CCN(C)CC4)n3)ccc2[nH]1 [Compound 10] | -4 | 14 | 47 | 10 | 37 | 28 | 22 | 54 | 64 | 4 | -6 | 47 | -1 | 67 | 75 | 102 | 78 | -26 | 75 | 50 | inhibition at 0.1 µM (DDR2(h)): 80%; inhibition at 0.1 µM (DAPK1(h)): 0%; inhibition at 0.1 µM (MSK2(h)): -7%; inhibition at 0.1 µM (PKCζ(h)): -7%; inhibition at 0.1 µM (Pim-2(h)): -25%; inhibition at 0.1 µM (ULK3(h)): 86%; inhibition at 0.1 µM (PKCι(h)): 0%; inhibition at 0.1 µM (PIP5K1α(h)): -2%; inhibition at 0.1 µM (IKKβ(h)): 1%; inhibition at 0.1 µM (Hck(h)): 68%; inhibition at 0.1 µM (Snk(h)): 9%; inhibition at 0.1 µM (Yes(h)): 99%
2 | Cc1cc2c(F)c(Oc3nc(Nc4cc(C5CC5)[nH]n4)cc(N4CCNCC4)n3)ccc2[nH]1 [Compound 11, N-(5-cyclopropyl-1H-pyrazol-3-yl)-2-((4-fluoro-2-methyl-1H-indol-5-yl)oxy)-6-(piperazin-1-yl)pyrimidin-4-amine] | -24 | -1 | 40 | -7 | 13 | 24 | 32 | 47 | 63 | -3 | -16 | 76 | -4 | 73 | 87 | 99 | 62 | -16 | 66 | 56 | inhibition at 0.1 µM (DDR2(h)): 83%; inhibition at 0.1 µM (DAPK1(h)): 3%; inhibition at 0.1 µM (MSK2(h)): -5%; inhibition at 0.1 µM (PKCζ(h)): -14%; inhibition at 0.1 µM (Pim-2(h)): 17%; inhibition at 0.1 µM (ULK3(h)): 84%; inhibition at 0.1 µM (PKCι(h)): -10%; inhibition at 0.1 µM (PIP5K1α(h)): -3%; inhibition at 0.1 µM (IKKβ(h)): 5%; inhibition at 0.1 µM (Hck(h)): 85%; inhibition at 0.1 µM (Snk(h)): 5%; inhibition at 0.1 µM (Yes(h)): 101%
